These compounds were tested against human lung tryptase (assay: β-Tryptase In-Vitro Enzyme Assay). Conditions: human lung tryptase 1 nM, substrate H-D-HHT-Ala-Arg-pNa 500 μM, pH 7.4, room temperature.
Type: biochemical
Procedure: The β-tryptase assay was conducted with human lung tryptase (Cortex Biochem #CP3033) in an aqueous buffer (10 mM Tris, 10 mM Hepes, 150 mM NaCl, 0.1% PEG 8000, pH 7.4) using the chromogenic substrate H-D-HHT-Ala-Arg-pNa. […] Percent inhibition was calculated by comparing the initial reaction velocity of samples without inhibitor to those with inhibitor. The initial reaction velocities were analyzed using Microsoft Excel.

| Structure (SMILES) | IC50 |
| --- | --- |
| NCc1ccc2c(c1)C1(CCN(C(=O)Cc3ccc4ccccc4c3)CC1)CO2 [Cpd 84, 1-naphthalen-2-ylmethylcarbonyl-5′-aminomethyl-spiro[piperidine-4,3′-(2H)-benzo[b]furan]] | 1400 nM |
| NCc1ccc2c(c1)C1(CCN(C(=O)c3ccc(Oc4ccccc4)cc3)CC1)CO2 [Cpd 62, 1-(4-phenoxy-phenyl)carbonyl-5′-aminomethyl-spiro[piperidine-4,3′-(2H)-benzo[b]furan]] | 800 nM |
| NCc1ccc2c(c1)C1(CCN(C(=O)/C=C/c3ccc4ccccc4c3)CC1)CO2 [Cpd 113, (E)-1-(naphthalene-2-ylethenyl)carbonyl-5′-aminomethyl-spiro[piperidine-4,3′-(2H)-benzo[b]furan]] | 130 nM |
| NCc1ccc2c(c1)C1(CCN(C(=O)CCc3cccc(Cl)c3)CC1)CO2 [Cpd 83, 1-(3-chloro-phenethyl)carbonyl-5′-aminomethyl-spiro[piperidine-4,3′-(2H)-benzo[b]furan]] | 4300 nM |
| NCc1ccc2c(c1)C1(CCN(C(=O)c3cccc(OC(F)(F)F)c3)CC1)CO2 [Cpd 60, 1-(3-trifluoromethoxy-phenyl)carbonyl-5′-aminomethyl-spiro[piperidine-4,3′-(2H)-benzo[b]furan]] | 2100 nM |
| NCc1ccc2c(c1)C1(CCN(C(=O)c3csc(-c4cccnc4)n3)CC1)CO2 [Cpd 121, 1-(2-pyridin-3-yl-thiazol-4-yl)carbonyl-5′-aminomethyl-spiro[piperidine-4,3′-(2H)-benzo[b]furan]] | 510 nM |
| NCc1ccc2c(c1)C1(CCN(C(=O)Cc3ccc(F)cc3)CC1)CO2 [Cpd 90, 1-(4-fluoro-benzyl)carbonyl-5′-aminomethyl-spiro[piperidine-4,3′-(2H)-benzo[b]furan]] | 980 nM |
| Cc1cc(C(=O)N2CCC3(CC2)COc2ccc(CN)cc23)ccc1I [Cpd 51, 1-(3-methyl-4-iodo-phenyl)carbonyl-5′-aminomethyl-spiro[piperidine-4,3′-(2H)-benzo[b]furan]] | 190 nM |
| NCc1ccc2c(c1)C1(CCN(C(=O)c3cccc(Br)c3)CC1)CO2 [Cpd 29, 1-(3-bromo-phenyl)carbonyl-5′-aminomethyl-spiro[piperidine-4,3′-(2H)-benzo[b]furan]] | 130 nM |
| COc1cc(CC(=O)N2CCC3(CC2)COc2ccc(CN)cc23)ccc1OCc1ccccc1 [Cpd 106, 1-(3-methoxy-4-benzyloxy-benzyl)carbonyl-5′-aminomethyl-spiro[piperidine-4,3′-(2H)-benzo[b]furan]] | 610 nM |
| Cc1cc(OCc2ccc(C(=O)N3CCC4(CC3)COc3ccc(CN)cc34)o2)ccc1Cl [Cpd 139, 1-[5-(3-methyl-4-chloro-phenoxymethyl)-furan-2-yl]carbonyl-5′-aminomethyl-spiro[piperidine-4,3′-(2H)-benzo[b]furan]] | 87 nM |
| NCc1ccc2c(c1)C1(CCN(C(=O)c3ccc(C#Cc4ccccc4Cl)o3)CC1)CO2 [Cpd 146, 1-[5-(2-chloro-phenylethynyl)-furan-2-yl]carbonyl-5′-aminomethyl-spiro[piperidine-4,3′-(2H)-benzo[b]furan]] | 5.2 nM |
| NCc1ccc2c(c1)C1(CCN(C(=O)c3ccc(-c4cc(Cl)ccc4Cl)o3)CC1)CO2 [Cpd 137, 1-[5-(2,5-dichloro-phenyl)-furan-2-yl]carbonyl-5′-aminomethyl-spiro[piperidine-4,3′-(2H)-benzo[b]furan]] | 53 nM |
| NCc1ccc2c(c1)C1(CCN(C(=O)c3cccc(NC(=O)Cc4cccs4)c3)CC1)CO2 [Cpd 19, 1-(3-thien-2-ylmethylcarbonylamino-phenyl)carbonyl-5′-aminomethyl-spiro[piperidine-4,3′-(2H)-benzo[b]furan]] | 560 nM |
| NCc1ccc2c(c1)C1(CCN(C(=O)/C=C/c3ccccc3)CC1)CO2 [Cpd 112, (E)-1-(phenylethenyl)carbonyl-5′-aminomethyl-spiro[piperidine-4,3′-(2H)-benzo[b]furan]] | 180 nM |
| NCc1ccc2c(c1)C1(CCN(C(=O)Cc3cccc(Br)c3)CC1)CO2 [Cpd 87, 1-(3-bromo-benzyl)carbonyl-5′-aminomethyl-spiro[piperidine-4,3′-(2H)-benzo[b]furan]] | 1700 nM |
| NCc1ccc2c(c1)C1(CCN(C(=O)c3ccc(/C=C\c4ccccc4)o3)CC1)CO2 [Cpd 77, (Z)-1-(5-phenylethenyl-furan-2-yl)carbonyl-5′-aminomethyl-spiro[piperidine-4,3′-(2H)-benzo[b]furan]] | 100 nM |
| CSc1cccc(CC(=O)N2CCC3(CC2)COc2ccc(CN)cc23)c1 [Cpd 103, 1-(3-methylthio-benzyl)carbonyl-5′-aminomethyl-spiro[piperidine-4,3′-(2H)-benzo[b]furan]] | 960 nM |

Further lines, results first:

| IC50 | Structure (SMILES) |
| --- | --- |
| 1700 nM | C/C(=C/c1ccccc1)C(=O)N1CCC2(CC1)COc1ccc(CN)cc12 [Cpd 181, (Z)-1-(1-methyl-2-phenylethenyl)carbonyl-5′-aminomethyl-spiro[piperidine-4,3′-(2H)-benzo[b]furan]] |
| 15 nM | CC1(C)CC(=O)c2c(SCc3ccccc3)sc(C(=O)N3CCC4(CC3)COc3ccc(CN)cc34)c2C1 [Cpd 232, 1-(3-benzylthio-4-oxo-6,6-dimethyl-6,7-dihydro-5H-benzo[c]thien-1-yl)carbonyl-5′-aminomethyl-spiro[piperidine-4,3′-(2H)-benzo[b]furan]] |
| 51 nM | CSc1sc(C(=O)N2CCC3(CC2)COc2ccc(CN)cc23)c(-c2ccc(Cl)cc2)c1C#N [Cpd 202, 1-[3-(4-chloro-phenyl)-4-cyano-5-methylthio-thien-2-yl]carbonyl-5′-aminomethyl-spiro[piperidine-4,3′-(2H)-benzo[b]furan]] |
| 1.2 nM | Cc1ccccc1C#Cc1ccc(C(=O)N2CCC3(CC2)COc2ccc(CN)cc23)o1 [Cpd 153, 1-[5-(2-methyl-phenylethynyl)-furan-2-yl]carbonyl-5′-aminomethyl-spiro[piperidine-4,3′-(2H)-benzo[b]furan]] |
| 41 nM | NCc1ccc2c(c1)C1(CCN(C(=O)c3ccc(C#Cc4ccccc4)o3)CC1)CN2S(=O)(=O)c1cccc(C(=O)O)c1 [Cpd 331, 1-(5-phenylethynyl-furan-2-yl)carbonyl-1′-(3-carboxy-phenyl)sulfonyl-5′-aminomethyl-spiro[piperidine-4,3′-(2H)-indole]] |
| 1400 nM | NCc1ccc2c(c1)C1(CCN(C(=O)C3c4ccccc4-c4ccccc43)CC1)CO2 [Cpd 289, 1-fluoren-9-ylcarbonyl-5′-aminomethyl-spiro[piperidine-4,3′-(2H)-benzo[b]furan]] |
| 26 nM | NCc1ccc2c(c1)C1(CCN(C(=O)c3ccc(C#Cc4ccccc4)o3)CC1)CN2 [Cpd 319, 1-(5-phenylethynyl-furan-2-yl)carbonyl-5′-aminomethyl-spiro[piperidine-4,3′-(2H)-indole]] |
| 750 nM | CCOCCOc1cccc(/C=C/C(=O)N2CCC3(CC2)COc2ccc(CN)cc23)c1 [Cpd 302, (E)-1-[3-(2-ethoxy-ethoxy)-phenylethenyl]carbonyl-5′-aminomethyl-spiro[piperidine-4,3′-(2H)-benzo[b]furan]] |
| 7.2 nM | Cc1ccc(C)c(C#Cc2ccc(C(=O)N3CCC4(CC3)COc3ccc(CN)cc34)o2)c1 [Cpd 172, 1-[5-(2,5-dimethyl-phenylethynyl)-furan-2-yl]carbonyl-5′-aminomethyl-spiro[piperidine-4,3′-(2H)-benzo[b]furan]] |
| 58 nM | NCc1ccc2c(c1)C1(CCN(C(=O)c3sc4cccc(Cl)c4c3Cl)CC1)CO2 [Cpd 175, 1-(3,4-dichloro-benzo[b]thien-2-yl)carbonyl-5′-aminomethyl-spiro[piperidine-4,3′-(2H)-benzo[b]furan]] |
| 330 nM | Cc1cc(C)nc(SCc2ccc(C(=O)N3CCC4(CC3)COc3ccc(CN)cc34)o2)n1 [Cpd 148, 1-[5-(4,6-dimethyl-pyrimidin-2-ylthiomethyl)-furan-2-yl]carbonyl-5′-aminomethyl-spiro[piperidine-4,3′-(2H)-benzo[b]furan]] |
| 200 nM | CC(C)(C)c1ccc(C(=O)N2CCC3(CC2)COc2ccc(CN)cc23)s1 [Cpd 266, 1-(5-tert-butyl-thien-2-yl)carbonyl-5′-aminomethyl-spiro[piperidine-4,3′-(2H)-benzo[b]furan]] |
| 290 nM | NCc1ccc2c(c1)C1(CCN(C(=O)CC3c4ccccc4-c4ccccc43)CC1)CO2 [Cpd 355, 1-(9H-fluoren-9-ylmethyl)carbonyl-5′-aminomethyl-spiro[piperidine-4,3′-(2H)-benzo[b]furan]] |
| 28 nM | Cn1cnc(S(=O)(=O)N2CC3(CCN(C(=O)c4ccc(C#Cc5ccccc5)o4)CC3)c3cc(CN)ccc32)c1 [Cpd 336, 1-(5-phenylethynyl-furan-2-yl)carbonyl-1′-(1-methyl-imidazol-4-yl)sulfonyl-5′-aminomethyl-spiro[piperidine-4,3′-(2H)-indole]] |
| 830 nM | Cc1cccc2c(C(=O)N3CCC4(CC3)COc3ccc(CN)cc34)c[nH]c12 [Cpd 249, 1-(7-methyl-indol-3-yl)carbonyl-5′-aminomethyl-spiro[piperidine-4,3′-(2H)-benzo[b]furan]] |
| 380 nM | NCc1ccc2c(c1)C1(CCN(C(=O)C=C3c4ccccc4-c4ccccc43)CC1)CO2 [Cpd 189, 1-(1-oxo-2-fluoren-9-ylidene-ethyl)-5′-aminomethyl-spiro[piperidine-4,3′-(2H)-benzo[b]furan]] |
| 140 nM | NCc1ccc2c(c1)C1(CCN(C(=O)c3sc4cc(Br)ccc4c3Cl)CC1)CO2 [Cpd 230, 1-(3-chloro-6-bromo-benzo[b]thien-2-yl)carbonyl-5′-aminomethyl-spiro[piperidine-4,3′-(2H)-benzo[b]furan]] |
| 48 nM | NCc1ccc2c(c1)C1(CCN(C(=O)c3cc4c(F)cccc4s3)CC1)CO2 [Cpd 168, 1-(4-fluoro-benzo[b]thien-2-yl)carbonyl-5′-aminomethyl-spiro[piperidine-4,3′-(2H)-benzo[b]furan]] |
